# Results reported in US10597388B2, “Pyridazinone herbicides” (FMC CORPORATION, priority 2014, dated 2020).
# What was measured:
# Experiment in all cases: Test D controlled growth environment herbicide test, pre- and postemergence
# Format in all cases: in vivo
# [1] = system: Russian thistle (Salsola kali)
# Summary of the method: (§1)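 Species sown in silt loam and sprayed preemergence, or grown in peat-based medium to 2–18 cm (1- to 4-leaf stage) and sprayed postemergence, with compounds in non-phytotoxic solvent plus surfactant. Visual injury scored versus controls after 14–21 d in a controlled environment, 0 (no effect) to 100 (complete control).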
# [2] = system: barley, spring (spring barley, Hordeum vulgare)
# Summary of the method: as §1
# [3] = system: buckwheat, wild (wild buckwheat, Polygonum convolvulus)
# Summary of the method: as §1
# [4] = system: canarygrass (Phalaris minor)
# Summary of the method: as §1
# [5] = system: chickweed (common chickweed, Stellaria media)
# Summary of the method: as §1
# [6] = system: field violet (Viola arvensis)
# Summary of the method: as §1
# [7] = system: galium (catchweed bedstraw, Galium aparine)
# Summary of the method: as §1
# kochia (Kochia scoparia) = system: kochia (Kochia scoparia)
# Summary of the method: as §1
# [8] = system: oat, wild (wild oat, Avena fatua)
# Summary of the method: as §1
# [9] = system: oilseed rape (Brassica napus)
# Summary of the method: as §1
# [10] = system: pigweed (Amaranthus retroflexus)
# Summary of the method: as §1
# [11] = system: wheat, spring (spring wheat, Triticum aestivum)
# Summary of the method: as §1
# [12] = system: wheat, winter (winter wheat, Triticum aestivum)
# Summary of the method: as §1
# [13] = Postemergence, 31 g ai/ha, scale 0 to 100 (0 no effect, 100 complete control)
# [14] = Postemergence, 125 g ai/ha, visual rating on scale 0 (no effect) to 100 (complete control), 14 to 21 d
# [15] = Postemergence, 250 g ai/ha, scale 0 to 100 (0 no effect, 100 complete control)
# [16] = Preemergence, 125 g ai/ha, scale 0 to 100 (0 no effect, 100 complete control)
# [17] = Preemergence, 250 g ai/ha, scale 0 to 100, 0 no effect, 100 complete control
# [18] = postemergence, 62 g ai/ha, scale 0 to 100, 0 no effect, 100 complete control
# [19] = Preemergence, 62 g ai/ha, scale 0 to 100 (0 no effect, 100 complete control)
smiles,measurement,setting,value
Cc1nn(C)c(=O)c(-c2cccc3ccc(Br)cc23)c1O [Compound 126],Russian Thistle plant response rating,[1]; [13],30
same,"Plant response rating, Russian Thistle",[1]; [14],80
same,"Plant response rating, Russian Thistle",[1]; [15],85
same,"Plant response rating (scale of 0 to 100), Russian Thistle","[1]; Preemergence, 31 g ai/ha",0
same,"Plant response rating (scale of 0 to 100), Russian Thistle","[1]; Preemergence, 62 g ai/ha",0
same,"Plant response rating, Russian Thistle",[1]; [16],5
same,"Plant response rating, Russian Thistle",[1]; [17],15
same,"Plant response rating, Russian Thistle",[1]; [18],40
same,"Barley, Spring plant response rating",[2]; [13],0
same,"Plant response rating, Barley, Spring",[2]; [14],10
same,"Plant response rating, Barley, Spring",[2]; [15],10
same,"Plant response rating (scale of 0 to 100), Barley, Spring","[2]; Preemergence, 31 g ai/ha",0
same,"Plant response rating, Barley, Spring",[2]; [19],0
same,"Plant response rating, Barley, Spring",[2]; [16],0
same,"Plant response rating, Barley, Spring",[2]; [17],0
same,"Plant response rating, Barley, Spring",[2]; [18],0
same,"Buckwheat, Wild plant response rating",[3]; [13],70
same,"Plant response rating, Buckwheat, Wild",[3]; [14],100
same,"Plant response rating, Buckwheat, Wild",[3]; [15],100
same,"Plant response rating (scale of 0 to 100), Buckwheat, Wild","[3]; Preemergence, 31 g ai/ha",0
same,"Plant response rating, Buckwheat, Wild",[3]; [19],0
same,"Plant response rating, Buckwheat, Wild",[3]; [16],10
same,"Plant response rating, Buckwheat, Wild",[3]; [17],25
same,"Plant response rating, Buckwheat, Wild",[3]; [18],100
same,Canarygrass plant response rating,[4]; [13],20
same,"Plant response rating, Canarygrass",[4]; [14],45
same,"Plant response rating, Canarygrass",[4]; [15],75
same,"Plant response rating (scale of 0 to 100), Canarygrass","[4]; Preemergence, 31 g ai/ha",15
same,"Plant response rating (scale of 0 to 100), Canarygrass","[4]; Preemergence, 62 g ai/ha",50
same,"Plant response rating, Canarygrass",[4]; [16],80
same,"Plant response rating, Canarygrass",[4]; [17],90
same,"Plant response rating, Canarygrass",[4]; [18],35
same,Chickweed plant response rating,[5]; [13],80
same,"Plant response rating, Chickweed",[5]; [14],100
same,"Plant response rating, Chickweed",[5]; [15],100
same,"Plant response rating (scale of 0 to 100), Chickweed","[5]; Preemergence, 31 g ai/ha",70
same,"Plant response rating (scale of 0 to 100), Chickweed","[5]; Preemergence, 62 g ai/ha",98
same,"Plant response rating, Chickweed",[5]; [16],100
same,"Plant response rating, Chickweed",[5]; [17],100
same,"Plant response rating, Chickweed",[5]; [18],98
same,Field Violet plant response rating,[6]; [13],85
same,"Plant response rating, Field Violet",[6]; [14],90
same,"Plant response rating, Field Violet",[6]; [15],100
same,"Plant response rating (scale of 0 to 100), Field Violet","[6]; Preemergence, 31 g ai/ha",85
same,"Plant response rating (scale of 0 to 100), Field Violet","[6]; Preemergence, 62 g ai/ha",85
same,"Plant response rating, Field Violet",[6]; [16],100
same,"Plant response rating, Field Violet",[6]; [17],100
same,"Plant response rating, Field Violet",[6]; [18],85
same,Galium plant response rating,[7]; [13],90
same,"Plant response rating, Galium",[7]; [14],100
same,"Plant response rating, Galium",[7]; [15],100
same,"Plant response rating (scale of 0 to 100), Galium","[7]; Preemergence, 31 g ai/ha",50
same,"Plant response rating (scale of 0 to 100), Galium","[7]; Preemergence, 62 g ai/ha",70
same,"Plant response rating, Galium",[7]; [16],85
same,"Plant response rating, Galium",[7]; [17],98
same,"Plant response rating, Galium",[7]; [18],100
same,Kochia plant response rating,kochia (Kochia scoparia); [13],75
same,"Plant response rating, Kochia",kochia (Kochia scoparia); [14],95
same,"Plant response rating, Kochia",kochia (Kochia scoparia); [15],100
same,"Plant response rating (scale of 0 to 100), Kochia","kochia (Kochia scoparia); Preemergence, 31 g ai/ha",10
same,"Plant response rating (scale of 0 to 100), Kochia","kochia (Kochia scoparia); Preemergence, 62 g ai/ha",20
same,"Plant response rating, Kochia",kochia (Kochia scoparia); [16],75
same,"Plant response rating, Kochia",kochia (Kochia scoparia); [17],95
same,"Plant response rating, Kochia",kochia (Kochia scoparia); [18],80
same,"Oat, Wild plant response rating",[8]; [13],60
same,"Plant response rating, Oat, Wild",[8]; [14],80
same,"Plant response rating, Oat, Wild",[8]; [15],90
same,"Plant response rating (scale of 0 to 100), Oat, Wild","[8]; Preemergence, 31 g ai/ha",65
same,"Plant response rating (scale of 0 to 100), Oat, Wild","[8]; Preemergence, 62 g ai/ha",70
same,"Plant response rating, Oat, Wild",[8]; [16],80
same,"Plant response rating, Oat, Wild",[8]; [17],90
same,"Plant response rating, Oat, Wild",[8]; [18],70
same,Oilseed Rape plant response rating,[9]; [13],60
same,"Plant response rating, Oilseed Rape",[9]; [14],75
same,"Plant response rating, Oilseed Rape",[9]; [15],85
same,"Plant response rating (scale of 0 to 100), Oilseed Rape","[9]; Preemergence, 31 g ai/ha",0
same,"Plant response rating (scale of 0 to 100), Oilseed Rape","[9]; Preemergence, 62 g ai/ha",0
same,"Plant response rating, Oilseed Rape",[9]; [16],15
same,"Plant response rating, Oilseed Rape",[9]; [17],90
same,"Plant response rating, Oilseed Rape",[9]; [18],65
same,Pigweed plant response rating,[10]; [13],98
same,"Plant response rating, Pigweed",[10]; [14],98
same,"Plant response rating, Pigweed",[10]; [15],98
same,"Plant response rating (scale of 0 to 100), Pigweed","[10]; Preemergence, 31 g ai/ha",98
same,"Plant response rating (scale of 0 to 100), Pigweed","[10]; Preemergence, 62 g ai/ha",100
same,"Plant response rating, Pigweed",[10]; [16],100
same,"Plant response rating, Pigweed",[10]; [17],100
same,"Plant response rating, Pigweed",[10]; [18],100
same,"Wheat, Spring plant response rating",[11]; [13],0
same,"Plant response rating, Wheat, Spring",[11]; [14],0
same,"Plant response rating, Wheat, Spring",[11]; [15],5
same,"Plant response rating (scale of 0 to 100), Wheat, Spring","[11]; Preemergence, 31 g ai/ha",0
same,"Plant response rating (scale of 0 to 100), Wheat, Spring","[11]; Preemergence, 62 g ai/ha",0
same,"Plant response rating, Wheat, Spring",[11]; [16],0
same,"Plant response rating, Wheat, Spring",[11]; [17],0
same,"Plant response rating, Wheat, Spring",[11]; [18],0
same,"Wheat, Winter plant response rating",[12]; [13],0
same,"Plant response rating, Wheat, Winter",[12]; [14],0
same,"Plant response rating, Wheat, Winter",[12]; [15],0
same,"Plant response rating (scale of 0 to 100), Wheat, Winter","[12]; Preemergence, 31 g ai/ha",0
same,"Plant response rating (scale of 0 to 100), Wheat, Winter","[12]; Preemergence, 62 g ai/ha",0
same,"Plant response rating, Wheat, Winter",[12]; [16],0
same,"Plant response rating, Wheat, Winter",[12]; [17],0
same,"Plant response rating, Wheat, Winter",[12]; [18],0
